Earlier results, collected in US8759282B2, “Water-soluble films comprising low-viscosity alginates” (Uppsalagruppen Medical AB, priority 2005, dated 2014).
Where two headings read alike, the source gives them in different places.

Assays:
[1] = not given; remark: listed apart in the source

Structure (SMILES): CC(=O)Nc1ccc(O)cc1 [Substance 1, N-Acetyl-p-aminophenol]
- Solubility in water: only slightly soluble in water

Structure (SMILES): CC(=O)Oc1ccccc1C(=O)O [Substance 2, 2-Acetoxibensoesyra]
- Solubility in water: 1 g/100 g of water

Structure (SMILES): CC(C)Cc1ccc(C(C)C(=O)O)cc1 (stereo not drawn) [Substance 3, p-Isobutylhydratropic acid]
- Solubility in water: slightly soluble in water
- Solubility in water (listed as ibuprofen): only slightly soluble in water

Structure (SMILES): CN1CCC[C@H]1c1cccnc1 [Substance 4, (S)-3-(1-Methyl-2-pyrrolidinyl)pyridine]
- pKa [1]: 8.5
- Solubility in water: liquid miscible with water
